Results on nine compounds are retold here after PubChem BioAssay (NCI).

Several values for one entry are separate records, joined by “and”; a condition that tells them apart may be missing. Equal values may be shown once.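 These data come from cells grown in 96-well plates and exposed to compound for 48 hours at five concentrations. GI50 is the concentration that inhibits growth by half. TGI: concentration producing complete growth inhibition.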

Holding throughout (test): NCI-60 cell line screen, 48 h
In experiment [1] the test system is SNB-19 CNS.
In experiment [2] the test system is RPMI-8226 leukemia.
In experiment [3] the test system is SW-620 colon.
Experiment [4] relates to SF-268 CNS.
The test system of experiment [5] is CAKI-1 renal.
Experiment [6] has as its system MOLT-4 leukemia.
Experiment [7] concerns CCRF-CEM leukemia.
Experiment [8] relates to SK-MEL-5 melanoma.
Experiment [9] deals with SK-MEL-28 melanoma.
Experiment [10] concerns A549 NSCLC.

As for `O=C(CSc1nc2ccc([N+](=O)[O-])cc2[nH]1)Nc1cccc(C(F)(F)F)c1`, the GI50 is 2710 nM in [1]; 1370 nM in experiment [2]; 3130 nM in experiment [3]; 2730 nM in experiment [4]; 1760 nM in experiment [5]; 2710 nM in [6]. Besides, the GI50 is 2580 nM in experiment [7], 1030 nM in [8], 2340 nM in [9] and 2300 nM in experiment [10]. Also, the TGI in experiment [1] was 12.7 µM; in experiment [2], > 23.6 µM; in experiment [3], 14.6 µM; in experiment [4], 13.9 µM; in experiment [5], 7.15 µM; in experiment [6] it was 19.5 µM. Also, the TGI in experiment [7] was > 60.1 µM; in experiment [8], 2.57 µM; in experiment [9] it was 13.5 µM; in experiment [10], 12.7 µM.

As to `O=C1C(Cl)=C(Oc2ccccc2)C(=O)c2ccccc21`, the GI50 was 4110 nM in [1]; 2690 nM in [2]; 1810 nM in [3]; 5370 nM in [4]; 1800 nM in [5]; 4090 nM in experiment [6]. The GI50 in [7] was 2230 nM; in experiment [8] it was 6260 nM; in experiment [9] it was 13500 nM; in experiment [10] it was 21000 nM. The TGI worked out at 17.4 µM in experiment [1]; 11.4 µM in experiment [2]; 3.57 µM in experiment [3]; 18.7 µM in experiment [4]; 4.03 µM in experiment [5]; 30.7 µM in experiment [6]. For the same compound, the TGI came to 8.32 µM in experiment [7], 17.1 µM in experiment [8], 27.1 µM in experiment [9] and 51.8 µM in experiment [10].

Consider `NCCCn1c2c(c3ccccc3c1=O)C(=O)c1cc3c(cc1-2)OCO3`, for which the GI50 in experiment [1] is 159 nM; in [2], < 21.4 nM; in experiment [3] it was 111 nM; in experiment [4] it was 1510 nM; in [5], 247 nM; in experiment [6], < 10 nM. Further, the GI50 was 27.1 nM in [7], 122 nM in [8], 2230 nM in [9] and 27.3 nM in experiment [10]. Moreover, the TGI amounted to 1.62 µM in [1]; 0.258 µM in experiment [2]; 2.35 µM in experiment [3]; 15 µM in experiment [4]; 2.27 µM in [5]; 0.187 µM in experiment [7]. The TGI in [8] amounted to 0.802 µM; in experiment [9], 9.37 µM; in [10], 0.658 µM.

On to `c1ccc(Oc2c3ccccc3nc3ccccc23)cc1`, for which the GI50 is 5350 nM in [1]; 4750 nM in experiment [2]; 1640 nM in experiment [3]; 5280 nM in experiment [4]; 6070 nM in experiment [5]; 820 nM in experiment [6]. Further, the GI50 is 1120 nM in experiment [7], 3500 nM in experiment [8], 11300 nM in [9] and 4620 nM in [10]. Also, the TGI was found to be 18 µM in [1]; 24.6 µM in experiment [2]; 17.5 µM in experiment [3]; 17.3 µM in experiment [4]; 19.5 µM in [5]; 48 µM in experiment [6]. In addition, the TGI is > 100 µM in experiment [7], 11.7 µM in [8], 24.1 µM in experiment [9] and 27 µM in [10].

Consider `O=C1NC(=O)[C@@H](c2cn3c4c(cccc24)CCC3)[C@@H]1c1c[nH]c2ccccc12`, for which the GI50 in experiment [1] is 466 nM and 601 nM; in experiment [2], 379 nM and 2930 nM; in experiment [3] it was 391 nM and 354 nM; in experiment [4], 1320 nM and 911 nM; in experiment [5] it was 332 nM and 518 nM; in experiment [6], 717 nM and 891 nM. The GI50 is 288 nM and 429 nM in [7]; 266 nM and 289 nM in experiment [8]; 1040 nM and 660 nM in experiment [9]; 617 nM and 516 nM in experiment [10]. The TGI was > 10 µM and 22.6 µM in experiment [1]; > 93.5 µM in [2]; > 10 µM and 15.2 µM in [3]; > 10 µM and 17.5 µM in experiment [4]; > 10 µM and 31.4 µM in [5]; > 10 µM and 18.1 µM in [6]. Besides, the TGI in experiment [7] is > 10 µM and 41.2 µM; in experiment [8] it was 1.36 µM and 3.07 µM; in [9], > 10 µM and 19.6 µM; in [10], > 10 µM and 16.4 µM.

`Cn1cc(-c2nc(-c3c[nH]c4ncccc34)cs2)c2cc(Cl)ccc21`: the GI50 is 6610 nM in [1]; 4870 nM in [2]; 5300 nM in experiment [3]; 5280 nM in experiment [4]; 2650 nM in experiment [5]; 4270 nM in experiment [6]. Also, the GI50 in experiment [7] is 5510 nM; in experiment [8], 7480 nM; in [9], 7430 nM; in [10] it was 3940 nM. For the same compound, the TGI in experiment [1] was > 100 µM; in experiment [2], > 100 µM; in [3] it was > 100 µM; in experiment [4], > 100 µM; in [5] it was 9.22 µM; in experiment [6], > 100 µM. For the same compound, the TGI in [7], in experiment [8], in experiment [9] and in [10] was > 100 µM each time.

`O=[N+]([O-])c1ccc2c(c1)OCCOCCOc1ccc([N+](=O)[O-])cc1OCCOCCO2`: the TGI in experiment [1], in experiment [2], in experiment [3], in experiment [4], in experiment [5] and in [6] was > 100 µM each time. The TGI in [7], in [8], in experiment [9] and in experiment [10] was > 100 µM each time.

As for `O=NN(CCCl)C(=O)NCc1ccc[n+]([O-])c1`, the TGI in experiment [2], in [3], in experiment [4], in experiment [5], in [6] and in [7] was > 100 µM throughout. In addition, the TGI in experiment [8], in [9] and in experiment [10] was > 100 µM in each case.

Consider `Brc1nc2c3ccccc3ncn2c1Br`, for which the TGI was > 100 µM in [1]; > 100 µM in experiment [2]; > 100 µM in experiment [3]; > 100 µM in experiment [4]; 79.5 µM in experiment [5]; 84.6 µM in [6]. In addition, the TGI in experiment [7] was > 100 µM; in experiment [8], 39.3 µM; in [9], > 100 µM; in [10], > 100 µM.
